The results in this text go back to patent publication US20100168146A1, “Composition Comprising (R)-Spiro[L-Azabicyclo[2.2.2]Octane-3,2'(3'H)-Furo[2,3-B]Pyridine (AZD0328) and its Use in the Treatment of Alzheimer's Disease, ADHD or Cognitive Dysfunction” (priority 2008, published 2010).

Entries after “also recorded” stand apart in the source; their conditions may differ. Bounds are passed on as bounds.

Series [1] has as its target α7 receptor binding sites (Rattus norvegicus, UniProt Q05941). Type of series: in vivo. To be noted: sc, 2-4 h.
The subject of series [2] is rats. The series can be described thus: Spontaneous locomotor activity. It counts as in vivo. To be noted: Wistar rat, oral gavage, 90 min session. The protocol: AZD0328 was investigated for possible effects on spontaneous locomotor activity in rats (n=6/group)(Table 3). Animals were individually placed in locomotor activity boxes for a 90 min test session. Movements within the box were measured by infrared beams, and activity was assessed as ambulatory counts, stereotypic counts, vertical counts, and resting time.

Series [3] concerns dogs. Kind of series: Cardiovascular telemetry / ECG. To be noted: dog. It counts as in vivo. The protocol:
The cardiovascular effects of orally administered AZD0328 were assessed dogs implanted with telemetry transmitters (Table 3). The main purpose of the study was to evaluate effects on the QT interval of the ECG during a 7-days dosing period followed by 5 days of recovery, thus enabling assessment of any accumulation of effects and the recovery back to baseline. Systolic, diastolic and mean arterial blood pressure, heart rate, lead II ECG and core body temperature were recorded continuously. The PR, QRS and QT intervals of the ECG were measured, and the QT interval was corrected for changes in heart rate using the method of Van de Water (QTcV).

The test system of series [4] is rats. The series can be described thus: 1 month repeated-dose oral toxicity. It counts as in vivo. To be noted: rat, one month, high dose 65 mg/kg/day (300 μmol/kg/day). The protocol:
The objective of this investigation was to study the toxicity of AZD0328 given orally to rats for 1 month. Four groups of rats, each consisting of 10 males and 10 females, were given 0, 2.2, 15 and 65 mg/kg/day ([…]) of AZD0328.

Series [5] addresses T1, 5-HT3A/B receptors (Homo sapiens, UniProt O95264+P46098).
T1 construct: expressed in transfected cells
T1 sequence (P46098 24-478): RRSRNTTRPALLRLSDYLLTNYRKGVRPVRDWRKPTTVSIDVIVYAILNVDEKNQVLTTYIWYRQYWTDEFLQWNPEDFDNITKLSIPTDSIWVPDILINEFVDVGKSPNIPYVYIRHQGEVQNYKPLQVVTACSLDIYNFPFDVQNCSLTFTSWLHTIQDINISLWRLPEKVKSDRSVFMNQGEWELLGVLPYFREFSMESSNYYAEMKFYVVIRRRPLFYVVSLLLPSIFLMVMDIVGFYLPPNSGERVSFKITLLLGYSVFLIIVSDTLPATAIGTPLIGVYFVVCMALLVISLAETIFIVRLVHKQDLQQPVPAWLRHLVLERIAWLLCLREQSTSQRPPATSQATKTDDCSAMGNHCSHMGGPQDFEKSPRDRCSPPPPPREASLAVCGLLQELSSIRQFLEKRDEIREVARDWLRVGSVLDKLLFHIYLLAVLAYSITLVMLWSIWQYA
T1 sequence (O95264 22-441): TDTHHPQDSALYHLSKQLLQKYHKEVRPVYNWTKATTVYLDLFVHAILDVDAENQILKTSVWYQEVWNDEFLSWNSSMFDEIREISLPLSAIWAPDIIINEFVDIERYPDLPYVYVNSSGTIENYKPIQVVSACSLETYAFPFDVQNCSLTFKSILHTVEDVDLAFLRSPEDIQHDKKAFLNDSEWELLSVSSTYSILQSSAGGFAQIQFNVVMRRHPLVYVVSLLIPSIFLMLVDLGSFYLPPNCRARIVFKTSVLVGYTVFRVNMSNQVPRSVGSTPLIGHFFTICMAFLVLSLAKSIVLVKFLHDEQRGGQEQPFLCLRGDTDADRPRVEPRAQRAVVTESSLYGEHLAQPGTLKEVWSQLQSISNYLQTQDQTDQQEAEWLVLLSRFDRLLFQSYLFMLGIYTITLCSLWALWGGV
Kind of series: Functional potency at recombinant human receptors in vitro. Type of series: cell-based.

The nature of series [6]: PK/TK multiple dose studies. It counts as in vivo. To be noted: rabbit 2F, DMB15, subcutaneous 1.15 mg/kg (3 μmol/kg), day 18. The text has this: This section provides a summary of the pharmacokinetic and metabolism properties of AZD0328 derived from in vivo studies. […] The derived PK/TK parameters from these studies are presented in Table 4 for single dose studies (DMR4, 0619LR, 20030191PCR, DM016, DMB10, DMW12, 50190, 0190DD and 03.330/1), and are presented in Table 5 multiple dose PK/TK studies (DMR4, 0612AR, DMB15, 50190, 0190DD and 0295AD).

In series [7] the test system is marmoset monkeys. Kind of series: Behavioral effects / tolerability. It counts as in vivo. To be noted: im, first five minutes after administration. The procedure:
Prior to testing its effects on cognitive task performance in marmoset monkeys, the tolerability of AZD0328 was assessed. (Table 3). Behaviours noted in individual marmosets during the five minutes immediately following drug administration were salivation, vomiting, scratching, defecation and increased activity.

Series [8] is described as follows: Cardiovascular/respiratory telemetry and whole body plethysmography. Type of series: in vivo, rat. To be noted: plasma; rat, oral, whole-body plethysmography; read-out: NOAEL on ventilatory function / respiration, total Cmax. The protocol:
(§1) Effects of single oral doses of AZD0328 on mean, systolic and diastolic arterial blood pressures, heart rate, body temperature, locomotor activity and respiratory parameters were evaluated in rats by combining whole body plethysmography with telemetry (Table 3). […] The degree of hypertension, however, was similar at the 3 highest doses, which partly can be explained by the high individual variation in plasma exposure at each dose level. The effect on heart rate was, on the other hand, dose-related.
(§2) Effects of AZD0328 on respiratory function were evaluated in the combined cardiovascular/respiratory study in rats (Table 3). Respiratory rate, tidal volume, inspiratory and expiratory times, and peak inspiratory and expiratory flows were measured […].

Series [9] has as its system rats. The series is described as above. It counts as in vivo, rat. The protocol: as §1, §2

By Tmax is commonly meant the time at which the peak concentration occurs.

α7 receptor binding sites, sequence (Q05941 23-502): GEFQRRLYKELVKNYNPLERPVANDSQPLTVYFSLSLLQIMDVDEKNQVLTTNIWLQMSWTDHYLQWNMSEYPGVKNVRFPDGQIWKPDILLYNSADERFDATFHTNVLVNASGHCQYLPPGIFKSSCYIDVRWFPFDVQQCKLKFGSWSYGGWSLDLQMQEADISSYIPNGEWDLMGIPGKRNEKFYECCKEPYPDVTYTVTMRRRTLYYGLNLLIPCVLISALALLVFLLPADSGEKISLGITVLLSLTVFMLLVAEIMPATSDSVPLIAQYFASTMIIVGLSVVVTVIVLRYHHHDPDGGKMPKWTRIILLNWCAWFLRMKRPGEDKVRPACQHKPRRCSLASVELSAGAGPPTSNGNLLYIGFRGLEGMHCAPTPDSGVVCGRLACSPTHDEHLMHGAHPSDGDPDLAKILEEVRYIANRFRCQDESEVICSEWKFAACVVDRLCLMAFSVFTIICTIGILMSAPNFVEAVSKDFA

Take `c1cnc2c(c1)C[C@@]1(CN3CCC1CC3)O2` [AZD0328, (R)-Spiro[1-azabicyclo[2.2.2]octane-3,2′(3′H)-furo[2,3-b]pyridine]]: the “Active dose, [125I]-α-bungarotoxin binding ex vivo increased receptor number” value in series [1] stood at 0.1 µg/kg. Besides, the “Dose without effect on locomotor activity” value in [2] is given as “up to 129.8 mg/kg”. Further, the “Body temperature, PR or QRS interval” value in series [3] (any dose level, 7 or 1 day dosing) is listed as “no effect”. The “BP and/or HR” value in [3] (oral gavage) was “increased at all doses”. The Emesis entry in series [3] (single doses 17.3 and 34.6 mg/kg (mid and high dose groups)) is “frequent vomiting; also recorded: severe emesis. BP and/or HR”. Further, in [4], the “Target organ pathology (kidney)” value is listed as “vacuolation of the tubular cells”. For the same molecule, in series [5], the “Functional potency α7 versus 5-HT3A/B” value was “equipotent”. Further, the Tmax in [6] lay in the range of 18 to 60 min. Further, in series [7], the “Doses with salivation, vomiting, scratching, defecation and increased activity” value is “administration with 0.03-3 mg/kg”. Further, the Cmax in series [8] was not above 31.2 µM. Further, the “Dose with no CV effect” value in series [9] (Wistar rat, oral gavage) stood at 1.1 mg/kg. Moreover, the “Increase in blood pressure and heart rate” value in series [9] (conscious telemetered rat, oral) is listed as more than 10%. For the same molecule, the “Locomotor activity or body temperature” value in series [9] (rat, oral, any dose) is “μM. No effect on locomotor”. In [9] (telemetered Wistar rat, oral gavage, highest dose (total Cmax 31.2 μM)), this molecule came in with an HR increase of 19%.
